Test results published in the RepoRT retention time repository (doi:10.1016/j.chroma.2019.01.023).
Values belong to the compound of their own block, whether it stands above or below them.

Legend:
[1] = HILIC, Merck SeQuant ZIC-pHILIC, 150 × 2.1 mm, 5 µm, 40 °C, 0.3 mL/min, estimated dead time 1.1 min; A: acetonitrile; B: water + 2.8 mM ammonium formate, pH 9; gradient (min/%B) 0/5 1/5 10/51 13/51 13.1/5 20/5; settings: stereoisomer not certain
[2] = HILIC, Waters ACQUITY UPLC BEH Amide, 150 × 2.1 mm, 1.7 µm, 40 °C, 0.5 mL/min, estimated dead time 0.66 min; A: 5% water + 95% acetonitrile; B: 70% water + 30% acetonitrile + 10 mM ammonium formate, pH 6.5; gradient (min/%B) 0/0 2/0 20/70 23/70 24/0 31/0; settings: stereoisomer not certain

SMILES: NC1C(O)OC(CO)C(O)C1O (configuration not stated) [GLUCOSAMINE]
- LC retention time [2]: 11.3 min

SMILES: NCCC(=O)NC(Cc1cnc[nH]1)C(=O)O (configuration not stated) [CARNOSINE]
- LC retention time [1]: 10.5 min
- LC retention time [2]: 12.3 min

SMILES: O=C1CC(C(=O)[O-])NC(=O)N1 (configuration not stated) [DIHYDROOROTATE]
- LC retention time [1]: 7.81 min
- LC retention time [2]: 7.2 min

SMILES: C[N+](C)(C)CC(=O)[O-] [BETAINE]
- LC retention time [2]: 7.63 min

SMILES: CN(C)c1ccc(N)cc1 [N,N-DIMETHYL-1,4-PHENYLENEDIAMINE]
- LC retention time [2]: 0.91 min

SMILES: NC(=O)CCC(N)C(=O)O (configuration not stated) [GLUTAMINE]
- LC retention time [1]: 9.03 min
- LC retention time [2]: 11 min

SMILES: NCCC[C@@H](N)C(=O)O [D-ORNITHINE]
- LC retention time [2]: 14.4 min

SMILES: CC(O)CC(=O)[O-] (configuration not stated) [3-HYDROXYBUTANOATE]
- LC retention time [2]: 1.37 min

SMILES: CN=C(N)N [METHYLGUANIDINE]
- LC retention time [2]: 8 min

SMILES: CCCCCCCCCCCCCCCC(=O)OCC(COP(=O)(O)OCCN)OC(=O)CCCCCCCCCCCCCCC (configuration not stated) [DIPALMITOYL-PHOSPHOETHANOLAMINE]
- LC retention time [2]: 4.45 min

SMILES: CN1CC(=O)NC1=N [CREATININE]
- LC retention time [1]: 5.92 min
- LC retention time [2]: 4.34 min

SMILES: Nc1ccccc1C(=O)[O-] [ANTHRANILATE]
- LC retention time [2]: 1.11 min

SMILES: NC(N)=NCCCC(N)C(=O)O (configuration not stated) [ARGININE]
- LC retention time [1]: 3.62 min
- LC retention time [2]: 14.2 min

SMILES: CNCCc1c[nH]c2ccccc12 [N-METHYLTRYPTAMINE]
- LC retention time [2]: 6.64 min

SMILES: CN(CC(=O)O)C(=N)N [CREATINE]
- LC retention time [1]: 8.59 min
- LC retention time [2]: 9.87 min

SMILES: CCCC(=O)[O-] [BUTANOATE]
- LC retention time [2]: 1.29 min

SMILES: CC12CCC(O)CC1CCC1C2C(O)CC2(C)C1CCC2(O)C(=O)CO (configuration not stated)
- LC retention time [2]: 0.99 min

SMILES: C[N+](C)(C)CCCC(=O)[O-] [DEOXYCARNITINE]
- LC retention time [2]: 10.8 min

SMILES: CC(=O)OCC[N+](C)(C)C [ACETYLCHOLINE]
- LC retention time [2]: 6.38 min

SMILES: NCCCCN=C(N)N.O=S(=O)(O)O [AGMATINE SULFATE]
- LC retention time [2]: 14 min

SMILES: O=C1CCNC(=O)N1 [DIHYDROURACIL]
- LC retention time [2]: 1.45 min

SMILES: COc1cc(CCN)ccc1O [3-METHOXYTYRAMINE]
- LC retention time [2]: 0.84 min

SMILES: NCCc1ccc(O)cc1 [TYRAMINE]
- LC retention time [2]: 7.72 min

SMILES: Cn1cnc(=N)c2[nH]cnc21 [3-METHYLADENINE]
- LC retention time [2]: 5.66 min

SMILES: NC(CCCC(=O)O)C(=O)O (configuration not stated) [AMINOADIPATE]
- LC retention time [1]: 8.78 min
- LC retention time [2]: 6.89 min

SMILES: OCC(O)C(O)CO (configuration not stated) [ERYTHRITOL]
- LC retention time [2]: 3.99 min

SMILES: NC1CCSC1=O (configuration not stated) [HOMOCYSTEINE THIOLACTONE]
- LC retention time [2]: 1.05 min

SMILES: O=CC(O)C1OC(=O)C(O)C1O [D-GLUCURONOLACTONE]
- LC retention time [1]: 6.28 min
- LC retention time [2]: 1.86 min

SMILES: NC(=O)NCCCC(N)C(=O)O (configuration not stated) [CITRULLINE]
- LC retention time [1]: 9.31 min
- LC retention time [2]: 11.3 min

SMILES: C[N+](C)(C)CCO [CHOLINE]
- LC retention time [2]: 7.51 min

SMILES: CC(=O)C(C)O (configuration not stated) [ACETOIN]
- LC retention time [2]: 8.78 min

SMILES: NCC(O)c1ccccc1 (configuration not stated) [PHENYLETHANOLAMINE]
- LC retention time [2]: 7.74 min

Second part, the compound after the results:

- LC retention time [1]: 9.47 min
- LC retention time [2]: 11 min
SMILES: OC1C(O)C(O)C(O)C(O)C1O (configuration not stated) [MYOINOSITOL]

- LC retention time [1]: 7.76 min
- LC retention time [2]: 4.89 min
SMILES: O=CNCC(=O)O [N-FORMYLGLYCINE]

- LC retention time [2]: 5.7 min
SMILES: CCCCCCCCCCCCCC=CC(O)C(COP(=O)([O-])OCC[N+](C)(C)C)NC(=O)CCCCCCCCCCCCCCCCC (configuration not stated) [SPHINGOMYELIN]

- LC retention time [1]: 7.56 min
- LC retention time [2]: 5.57 min
SMILES: CC(=O)NC(CO)C(=O)O (configuration not stated) [N-ACETYLSERINE]

- LC retention time [2]: 1.17 min
SMILES: NC(N)=S [THIOUREA]

- LC retention time [2]: 2.1 min
SMILES: NC(=O)C=CC(=O)O [MALEAMATE]

- LC retention time [2]: 10.5 min
SMILES: CC(O)C(N)C(=O)O (configuration not stated) [THREONINE]

- LC retention time [2]: 0.91 min
SMILES: CCCCCC(=O)[O-] [HEXANOATE]

- LC retention time [2]: 1.63 min
SMILES: COC(=O)CC(C)=O [METHYL ACETOACETATE]

- LC retention time [2]: 0.91 min
SMILES: c1ccc2ncccc2c1 [QUINOLINE]

- LC retention time [2]: 9.76 min
SMILES: C[C@H](N)C(=O)O [L-ALANINE]

- LC retention time [2]: 5.14 min
SMILES: CCCCCCCCCCCCCCCC(O)C(N)CO (configuration not stated) [SPHINGANINE]

- LC retention time [1]: 8.91 min
- LC retention time [2]: 10.5 min
SMILES: NC(CCO)C(=O)O (configuration not stated) [HOMOSERINE]

- LC retention time [2]: 13 min
SMILES: CN(C)C(N)=NCCCC(N)C(=O)O (configuration not stated) [N,N-DIMETHYLARGININE]

- LC retention time [2]: 8.79 min
SMILES: CC(C)C(=O)O [ISOBUTYRATE]

- LC retention time [2]: 6.24 min
SMILES: CCCCCCCCCCCC(=O)OC(CC(=O)[O-])C[N+](C)(C)C (configuration not stated) [LAUROYLCARNITINE]

- LC retention time [1]: 6.4 min
- LC retention time [2]: 2.47 min
SMILES: NC(CSCC(=O)O)C(=O)O (configuration not stated) [S-CARBOXYMETHYLCYSTEINE]

- LC retention time [2]: 9.43 min
SMILES: NCCc1cnc[nH]1 [HISTAMINE]

- LC retention time [2]: 2.48 min
SMILES: COC(=O)CCCC(=O)O [MONOMETHYLGLUTARATE]

- LC retention time [1]: 8.12 min
- LC retention time [2]: 11.1 min
SMILES: CNC(CCC(=O)O)C(=O)O (configuration not stated) [N-METHYLGLUTAMATE]
